{"source": "the kinase profiling compilation of Christmann-Franck et al. (2016)", "test_in_all_cases": "radiometric filter-binding kinase assay", "key": {"[1]": {"system": "AKT2 (human), P31751 [S474D]"}, "PRKCA (human)": {"molecular_target": "PRKCA (human) (UniProt P17252)"}, "SRC (human)": {"molecular_target": "SRC (human) (UniProt P12931)"}, "PRKACA (human)": {"molecular_target": "PRKACA (human) (UniProt P17612)"}, "MAPK1 (human)": {"molecular_target": "MAPK1 (human) (UniProt P28482)", "sequence (P28482 whole entry, looked up)": "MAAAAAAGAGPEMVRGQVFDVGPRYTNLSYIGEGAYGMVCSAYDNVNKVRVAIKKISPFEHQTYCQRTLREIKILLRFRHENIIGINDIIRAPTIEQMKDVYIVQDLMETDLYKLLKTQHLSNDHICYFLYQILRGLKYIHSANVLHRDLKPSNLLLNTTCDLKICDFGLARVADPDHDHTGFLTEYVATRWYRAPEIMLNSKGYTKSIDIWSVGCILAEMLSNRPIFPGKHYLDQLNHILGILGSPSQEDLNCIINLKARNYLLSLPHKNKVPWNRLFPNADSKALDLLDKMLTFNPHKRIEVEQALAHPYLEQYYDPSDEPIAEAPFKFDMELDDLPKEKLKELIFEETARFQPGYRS"}, "CHEK1 (human)": {"molecular_target": "CHEK1 (human) (UniProt O14757)"}, "PIM2 (human)": {"molecular_target": "PIM2 (human) (UniProt Q9P1W9)", "details": "compound 0.1 µM"}, "MAPK15 (human)": {"molecular_target": "MAPK15 (human) (UniProt Q8TD08)"}, "PHKG1 (human)": {"molecular_target": "PHKG1 (human) (UniProt Q16816)", "sequence (Q16816 whole entry, looked up)": "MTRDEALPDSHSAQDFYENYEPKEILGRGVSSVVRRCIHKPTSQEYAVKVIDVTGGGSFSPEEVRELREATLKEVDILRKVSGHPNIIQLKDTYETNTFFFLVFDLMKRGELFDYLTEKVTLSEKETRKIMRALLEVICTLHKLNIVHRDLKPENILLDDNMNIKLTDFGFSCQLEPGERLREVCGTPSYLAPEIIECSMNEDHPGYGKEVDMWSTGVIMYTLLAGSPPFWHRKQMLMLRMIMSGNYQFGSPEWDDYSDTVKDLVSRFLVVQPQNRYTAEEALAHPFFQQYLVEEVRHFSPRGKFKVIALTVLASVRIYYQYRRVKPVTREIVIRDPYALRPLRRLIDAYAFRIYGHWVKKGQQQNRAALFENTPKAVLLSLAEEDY"}, "MAPK9 (human)": {"molecular_target": "MAPK9 (human) (UniProt P45984)", "sequence (P45984 whole entry, looked up)": "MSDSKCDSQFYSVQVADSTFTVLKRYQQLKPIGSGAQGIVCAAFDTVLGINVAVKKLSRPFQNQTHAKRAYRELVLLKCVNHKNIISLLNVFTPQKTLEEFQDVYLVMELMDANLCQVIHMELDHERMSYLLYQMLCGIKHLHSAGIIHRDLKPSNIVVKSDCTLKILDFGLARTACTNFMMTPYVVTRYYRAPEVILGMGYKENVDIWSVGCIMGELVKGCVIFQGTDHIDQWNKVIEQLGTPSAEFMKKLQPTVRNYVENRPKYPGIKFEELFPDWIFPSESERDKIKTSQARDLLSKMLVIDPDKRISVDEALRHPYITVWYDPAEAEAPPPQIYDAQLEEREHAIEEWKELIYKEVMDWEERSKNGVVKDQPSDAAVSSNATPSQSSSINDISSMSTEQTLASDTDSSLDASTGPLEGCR"}, "IKBKB (human)": {"molecular_target": "IKBKB (human) (UniProt O14920)", "sequence (O14920 whole entry, looked up)": "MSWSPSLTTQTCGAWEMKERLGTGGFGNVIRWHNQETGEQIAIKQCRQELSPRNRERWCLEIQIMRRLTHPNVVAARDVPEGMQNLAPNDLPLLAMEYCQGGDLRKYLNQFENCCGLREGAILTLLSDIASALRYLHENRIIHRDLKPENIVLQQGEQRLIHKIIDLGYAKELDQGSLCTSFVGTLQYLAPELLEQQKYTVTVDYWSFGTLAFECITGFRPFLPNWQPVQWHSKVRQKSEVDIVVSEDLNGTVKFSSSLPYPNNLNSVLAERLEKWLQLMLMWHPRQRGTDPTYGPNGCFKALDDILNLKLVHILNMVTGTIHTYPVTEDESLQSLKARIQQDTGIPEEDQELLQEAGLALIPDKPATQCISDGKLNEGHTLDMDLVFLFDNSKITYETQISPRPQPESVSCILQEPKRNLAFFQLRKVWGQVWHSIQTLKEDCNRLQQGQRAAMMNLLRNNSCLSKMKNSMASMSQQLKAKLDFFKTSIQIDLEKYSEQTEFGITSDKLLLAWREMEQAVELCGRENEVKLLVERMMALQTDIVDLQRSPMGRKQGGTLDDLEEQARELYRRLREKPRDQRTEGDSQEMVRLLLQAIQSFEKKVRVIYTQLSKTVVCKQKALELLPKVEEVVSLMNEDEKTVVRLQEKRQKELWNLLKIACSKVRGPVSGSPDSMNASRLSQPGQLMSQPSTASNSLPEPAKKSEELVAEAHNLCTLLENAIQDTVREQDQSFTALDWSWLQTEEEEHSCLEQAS"}, "MAPKAPK2 (human)": {"molecular_target": "MAPKAPK2 (human) (UniProt P49137)", "sequence (P49137 whole entry, looked up)": "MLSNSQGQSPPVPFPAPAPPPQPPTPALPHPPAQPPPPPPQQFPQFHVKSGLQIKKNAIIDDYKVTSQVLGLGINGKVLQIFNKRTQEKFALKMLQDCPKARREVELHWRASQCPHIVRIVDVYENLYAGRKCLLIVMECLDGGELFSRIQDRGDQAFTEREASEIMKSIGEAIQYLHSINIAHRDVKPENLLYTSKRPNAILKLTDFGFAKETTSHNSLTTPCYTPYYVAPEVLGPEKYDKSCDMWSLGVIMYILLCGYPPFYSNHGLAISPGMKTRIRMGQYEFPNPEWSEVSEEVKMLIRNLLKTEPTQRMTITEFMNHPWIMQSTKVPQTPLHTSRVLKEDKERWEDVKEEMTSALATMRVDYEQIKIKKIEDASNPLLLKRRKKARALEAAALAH"}, "PRKAA1 or PRKAA2 (rat)": {"system": "PRKAA1 or PRKAA2 (rat)", "details": "accession and sequence are those of the human protein"}, "IGF1R (human)": {"molecular_target": "IGF1R (human) (UniProt P08069)", "sequence (P08069 whole entry, looked up)": "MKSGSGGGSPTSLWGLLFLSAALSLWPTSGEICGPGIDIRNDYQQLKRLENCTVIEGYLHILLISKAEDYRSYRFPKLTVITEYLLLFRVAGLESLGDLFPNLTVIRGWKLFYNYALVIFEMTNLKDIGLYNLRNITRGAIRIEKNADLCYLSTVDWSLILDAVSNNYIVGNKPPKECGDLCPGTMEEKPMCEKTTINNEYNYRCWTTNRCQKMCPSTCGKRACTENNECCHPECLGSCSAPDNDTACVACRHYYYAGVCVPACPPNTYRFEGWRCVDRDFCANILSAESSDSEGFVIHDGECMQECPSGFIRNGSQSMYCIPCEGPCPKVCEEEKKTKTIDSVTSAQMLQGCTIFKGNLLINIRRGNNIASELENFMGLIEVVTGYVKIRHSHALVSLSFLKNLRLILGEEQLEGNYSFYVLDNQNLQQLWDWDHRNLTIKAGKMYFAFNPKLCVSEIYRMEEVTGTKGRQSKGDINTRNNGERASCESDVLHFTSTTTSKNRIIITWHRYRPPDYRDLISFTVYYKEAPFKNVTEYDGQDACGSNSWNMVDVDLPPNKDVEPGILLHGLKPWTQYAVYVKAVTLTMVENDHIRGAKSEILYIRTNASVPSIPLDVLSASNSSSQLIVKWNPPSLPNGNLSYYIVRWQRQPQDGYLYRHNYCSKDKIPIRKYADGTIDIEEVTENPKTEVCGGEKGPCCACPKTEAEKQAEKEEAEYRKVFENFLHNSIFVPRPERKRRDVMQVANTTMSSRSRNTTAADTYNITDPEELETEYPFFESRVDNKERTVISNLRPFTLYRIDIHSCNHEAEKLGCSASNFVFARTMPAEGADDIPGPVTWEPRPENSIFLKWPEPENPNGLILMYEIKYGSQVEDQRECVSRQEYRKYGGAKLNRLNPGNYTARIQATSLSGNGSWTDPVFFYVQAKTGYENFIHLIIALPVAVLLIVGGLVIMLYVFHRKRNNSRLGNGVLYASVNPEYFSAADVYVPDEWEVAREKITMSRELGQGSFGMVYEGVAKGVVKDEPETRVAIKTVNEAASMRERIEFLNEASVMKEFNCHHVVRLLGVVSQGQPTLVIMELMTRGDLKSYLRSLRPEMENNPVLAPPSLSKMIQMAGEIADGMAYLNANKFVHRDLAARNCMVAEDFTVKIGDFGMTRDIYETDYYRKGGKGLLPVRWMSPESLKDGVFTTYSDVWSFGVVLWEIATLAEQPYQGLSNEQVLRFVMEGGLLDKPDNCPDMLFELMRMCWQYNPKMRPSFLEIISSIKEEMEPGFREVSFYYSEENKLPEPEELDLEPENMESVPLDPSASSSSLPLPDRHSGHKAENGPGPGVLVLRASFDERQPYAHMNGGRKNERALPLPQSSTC"}, "CAMKK2 (human)": {"molecular_target": "CAMKK2 (human) (UniProt Q96RR4)"}, "MKNK2 (human)": {"molecular_target": "MKNK2 (human) (UniProt Q9HBH9)", "sequence (Q9HBH9 whole entry, looked up)": "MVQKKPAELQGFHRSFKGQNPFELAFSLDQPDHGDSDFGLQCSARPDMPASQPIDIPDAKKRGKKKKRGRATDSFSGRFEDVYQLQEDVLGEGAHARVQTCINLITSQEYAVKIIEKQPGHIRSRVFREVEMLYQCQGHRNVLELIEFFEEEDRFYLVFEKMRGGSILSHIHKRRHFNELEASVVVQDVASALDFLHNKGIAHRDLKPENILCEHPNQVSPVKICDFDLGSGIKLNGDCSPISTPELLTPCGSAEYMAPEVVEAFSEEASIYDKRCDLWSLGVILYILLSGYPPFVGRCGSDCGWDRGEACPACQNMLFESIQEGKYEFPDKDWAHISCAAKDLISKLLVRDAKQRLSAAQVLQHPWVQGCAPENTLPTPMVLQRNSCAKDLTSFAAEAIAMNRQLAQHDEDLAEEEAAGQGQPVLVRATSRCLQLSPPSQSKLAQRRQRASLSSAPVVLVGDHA"}, "MKNK1 (human)": {"molecular_target": "MKNK1 (human) (UniProt Q9BUB5)"}, "YES1 (human)": {"molecular_target": "YES1 (human) (UniProt P07947)"}, "NEK2 (human)": {"molecular_target": "NEK2 (human) (UniProt P51955)"}, "PKN2 (human)": {"molecular_target": "PKN2 (human) (UniProt Q16513)", "details": "compound 0.1 µM"}, "CHEK2 (human)": {"molecular_target": "CHEK2 (human) (UniProt O96017)"}, "AURKB (human)": {"molecular_target": "AURKB (human) (UniProt Q96GD4)", "sequence (Q96GD4 whole entry, looked up)": "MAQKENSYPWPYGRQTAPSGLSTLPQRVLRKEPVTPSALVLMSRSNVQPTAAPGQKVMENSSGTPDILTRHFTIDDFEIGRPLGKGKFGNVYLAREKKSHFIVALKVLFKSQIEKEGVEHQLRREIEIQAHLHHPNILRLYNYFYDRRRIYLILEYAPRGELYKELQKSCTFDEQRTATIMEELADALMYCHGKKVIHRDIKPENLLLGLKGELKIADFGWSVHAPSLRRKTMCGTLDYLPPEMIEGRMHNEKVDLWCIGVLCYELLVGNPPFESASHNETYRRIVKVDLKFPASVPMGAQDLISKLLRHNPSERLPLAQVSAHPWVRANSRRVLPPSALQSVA"}, "STK3 (human)": {"molecular_target": "STK3 (human) (UniProt Q13188)"}, "MAPK3 (human)": {"molecular_target": "MAPK3 (human) (UniProt P27361)", "sequence (P27361 whole entry, looked up)": "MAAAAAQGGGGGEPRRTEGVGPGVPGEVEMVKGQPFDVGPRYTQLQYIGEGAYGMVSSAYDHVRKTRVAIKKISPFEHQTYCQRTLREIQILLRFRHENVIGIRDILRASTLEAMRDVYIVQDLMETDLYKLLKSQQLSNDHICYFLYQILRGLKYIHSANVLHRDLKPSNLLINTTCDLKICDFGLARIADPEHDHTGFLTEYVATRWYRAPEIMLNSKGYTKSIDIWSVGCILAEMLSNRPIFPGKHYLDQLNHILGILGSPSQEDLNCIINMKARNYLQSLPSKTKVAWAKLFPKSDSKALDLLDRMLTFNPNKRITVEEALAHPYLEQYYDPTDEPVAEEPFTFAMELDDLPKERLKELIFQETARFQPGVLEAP"}, "RPS6KA1 KD1 KD2 (human)": {"molecular_target": "RPS6KA1 KD1 KD2 (human) (UniProt Q15418)"}}, "data": [{"smiles": "Cn1c(=O)c2c(ncn2C)n(C)c1=O", "values": [{"measurement": "residual activity", "setting": "[1]; compound 0.1 µM", "value": 81, "unit": "%"}, {"measurement": "residual activity", "setting": "[1]; compound 1.0 µM", "value": 84, "unit": "%"}, {"measurement": "residual activity", "setting": "PRKCA (human); compound 0.1 µM", "value": 101, "unit": "%"}, {"measurement": "residual activity", "setting": "PRKCA (human); compound 1.0 µM", "value": 100, "unit": "%"}, {"measurement": "residual activity", "setting": "SRC (human); compound 0.1 µM", "value": 96, "unit": "%"}, {"measurement": "residual activity", "setting": "SRC (human); compound 1.0 µM", "value": 88, "unit": "%"}, {"measurement": "residual activity", "setting": "PRKACA (human); compound 0.1 µM", "value": 103, "unit": "%"}, {"measurement": "residual activity", "setting": "PRKACA (human); compound 1.0 µM", "value": 96, "unit": "%"}, {"measurement": "residual activity", "setting": "MAPK1 (human); compound 0.1 µM", "value": 96, "unit": "%"}, {"measurement": "residual activity", "setting": "MAPK1 (human); compound 1.0 µM", "value": 101, "unit": "%"}, {"measurement": "residual activity", "setting": "CHEK1 (human); compound 0.1 µM", "value": 88, "unit": "%"}, {"measurement": "residual activity", "setting": "CHEK1 (human); compound 1.0 µM", "value": 96, "unit": "%"}, {"measurement": "residual activity", "setting": "PIM2 (human)", "value": 113, "unit": "%"}, {"measurement": "residual activity", "setting": "MAPK15 (human); compound 0.1 µM", "value": 88, "unit": "%"}, {"measurement": "residual activity", "setting": "MAPK15 (human); compound 1.0 µM", "value": 95, "unit": "%"}, {"measurement": "residual activity", "setting": "PHKG1 (human); compound 0.1 µM", "value": 113, "unit": "%"}, {"measurement": "residual activity", "setting": "PHKG1 (human); compound 1.0 µM", "value": 115, "unit": "%"}, {"measurement": "residual activity", "setting": "MAPK9 (human); compound 0.1 µM", "value": 94, "unit": "%"}, {"measurement": "residual activity", "setting": "MAPK9 (human); compound 1.0 µM", "value": 100, "unit": "%"}, {"measurement": "residual activity", "setting": "IKBKB (human); compound 0.1 µM", "value": 90, "unit": "%"}, {"measurement": "residual activity", "setting": "IKBKB (human); compound 1.0 µM", "value": 100, "unit": "%"}, {"measurement": "residual activity", "setting": "MAPKAPK2 (human); compound 0.1 µM", "value": 102, "unit": "%"}, {"measurement": "residual activity", "setting": "MAPKAPK2 (human); compound 1.0 µM", "value": 89, "unit": "%"}, {"measurement": "residual activity", "setting": "PRKAA1 or PRKAA2 (rat); compound 0.1 µM", "value": 90, "unit": "%"}, {"measurement": "residual activity", "setting": "PRKAA1 or PRKAA2 (rat); compound 1.0 µM", "value": 98, "unit": "%"}, {"measurement": "residual activity", "setting": "IGF1R (human); compound 0.1 µM", "value": 86, "unit": "%"}, {"measurement": "residual activity", "setting": "IGF1R (human); compound 1.0 µM", "value": 94, "unit": "%"}, {"measurement": "residual activity", "setting": "CAMKK2 (human); compound 0.1 µM", "value": 104, "unit": "%"}, {"measurement": "residual activity", "setting": "CAMKK2 (human); compound 1.0 µM", "value": 103, "unit": "%"}, {"measurement": "residual activity", "setting": "MKNK2 (human); compound 0.1 µM", "value": 87, "unit": "%"}, {"measurement": "residual activity", "setting": "MKNK2 (human); compound 1.0 µM", "value": 91, "unit": "%"}, {"measurement": "residual activity", "setting": "MKNK1 (human); compound 0.1 µM", "value": 110, "unit": "%"}, {"measurement": "residual activity", "setting": "MKNK1 (human); compound 1.0 µM", "value": 99, "unit": "%"}, {"measurement": "residual activity", "setting": "YES1 (human); compound 0.1 µM", "value": 85, "unit": "%"}, {"measurement": "residual activity", "setting": "YES1 (human); compound 1.0 µM", "value": 85, "unit": "%"}, {"measurement": "residual activity", "setting": "NEK2 (human); compound 0.1 µM", "value": 107, "unit": "%"}, {"measurement": "residual activity", "setting": "NEK2 (human); compound 1.0 µM", "value": 102, "unit": "%"}, {"measurement": "residual activity", "setting": "PKN2 (human)", "value": 89, "unit": "%"}, {"measurement": "residual activity", "setting": "CHEK2 (human); compound 0.1 µM", "value": 86, "unit": "%"}, {"measurement": "residual activity", "setting": "CHEK2 (human); compound 1.0 µM", "value": 83, "unit": "%"}, {"measurement": "residual activity", "setting": "AURKB (human); compound 0.1 µM", "value": 91, "unit": "%"}, {"measurement": "residual activity", "setting": "AURKB (human); compound 1.0 µM", "value": 83, "unit": "%"}, {"measurement": "residual activity", "setting": "STK3 (human); compound 0.1 µM", "value": 97, "unit": "%"}, {"measurement": "residual activity", "setting": "STK3 (human); compound 1.0 µM", "value": 89, "unit": "%"}, {"measurement": "residual activity", "setting": "MAPK3 (human); compound 0.1 µM", "value": 99, "unit": "%"}, {"measurement": "residual activity", "setting": "MAPK3 (human); compound 1.0 µM", "value": 113, "unit": "%"}, {"measurement": "residual activity", "setting": "RPS6KA1 KD1 KD2 (human); compound 0.1 µM", "value": 74, "unit": "%"}, {"measurement": "residual activity", "setting": "RPS6KA1 KD1 KD2 (human); compound 1.0 µM", "value": 78, "unit": "%"}]}]}
